Test results reported in PubChem BioAssay (NCI).
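Compound exposure: 48 hours, 5 concentrations, 96-well plates. TGI: concentration producing complete growth inhibition.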

What was measured:
Assay in all cases: NCI tumour cell line growth inhibition, 48 h
A498 renal = tested on: A498 renal
BT-549 breast = tested on: BT-549 breast
HCC-2998 colon = tested on: HCC-2998 colon
MCF7 breast = tested on: MCF7 breast
MDA-MB-231 breast = tested on: MDA-MB-231 breast
MOLT-4 leukemia = tested on: MOLT-4 leukemia
NCI-H460 lung = tested on: NCI-H460 lung
OVCAR-5 ovarian = tested on: OVCAR-5 ovarian
SF-295 CNS = tested on: SF-295 CNS
SNB-75 CNS = tested on: SNB-75 CNS
SW-620 colon = tested on: SW-620 colon
T-47D breast = tested on: T-47D breast
UACC-257 melanoma = tested on: UACC-257 melanoma

CCOC(=O)/C=C(\C(=O)OCC)n1cc(C)c(=O)n(Cc2cnnn2CCCCOC(C)=O)c1=O
TGI (A498 renal): 37.5 µM
TGI (BT-549 breast): 22.6 µM
TGI (HCC-2998 colon): 43.9 µM
TGI (MCF7 breast): 21.5 µM
TGI (MDA-MB-231 breast): 50.2 µM
TGI (MOLT-4 leukemia): > 25.6 µM
TGI (NCI-H460 lung): 65.7 µM
TGI (OVCAR-5 ovarian): 39.5 µM
TGI (SF-295 CNS): > 76 µM
TGI (SNB-75 CNS): 38.3 µM
TGI (SW-620 colon): > 38.4 µM
TGI (T-47D breast): > 51 µM
TGI (UACC-257 melanoma): 31.7 µM

O=C1NC(N/N=C/C(O)C(O)C(O)CO)=N/C1=C\c1ccco1 (stereo unspecified)
TGI (A498 renal): > 100 µM
TGI (BT-549 breast): > 100 µM
TGI (HCC-2998 colon): > 100 µM
TGI (MCF7 breast): > 100 µM
TGI (MDA-MB-231 breast): > 100 µM
TGI (MOLT-4 leukemia): > 100 µM
TGI (NCI-H460 lung): > 100 µM
TGI (OVCAR-5 ovarian): > 100 µM
TGI (SF-295 CNS): > 100 µM
TGI (SNB-75 CNS): > 100 µM
TGI (SW-620 colon): > 100 µM
TGI (T-47D breast): > 100 µM
TGI (UACC-257 melanoma): > 100 µM

Cc1cn(C(Cc2ccccc2)OCCO)c(=O)[nH]c1=O (stereo unspecified)
TGI (A498 renal): > 100 µM
TGI (BT-549 breast): > 100 µM
TGI (HCC-2998 colon): > 100 µM
TGI (MCF7 breast): > 100 µM
TGI (MDA-MB-231 breast): > 100 µM
TGI (MOLT-4 leukemia): > 100 µM
TGI (NCI-H460 lung): > 100 µM
TGI (OVCAR-5 ovarian): > 100 µM
TGI (SF-295 CNS): > 100 µM
TGI (SNB-75 CNS): > 100 µM
TGI (SW-620 colon): > 100 µM
TGI (T-47D breast): > 100 µM
TGI (UACC-257 melanoma): > 100 µM

CN(NC(=O)c1cccs1)C1=NCCCN1
TGI (A498 renal): > 100 µM
TGI (BT-549 breast): > 100 µM
TGI (HCC-2998 colon): > 100 µM
TGI (MCF7 breast): > 100 µM
TGI (MDA-MB-231 breast): > 100 µM
TGI (MOLT-4 leukemia): > 100 µM
TGI (NCI-H460 lung): > 100 µM
TGI (OVCAR-5 ovarian): > 100 µM
TGI (SF-295 CNS): > 100 µM
TGI (SNB-75 CNS): > 100 µM
TGI (SW-620 colon): > 100 µM
TGI (T-47D breast): > 100 µM
TGI (UACC-257 melanoma): > 100 µM

CC(=O)O[C@H]1C#C/C=C\C#CC[C@@H]2C(=O)N[C@@H]12
TGI (A498 renal): 98.9 µM
TGI (BT-549 breast): > 86.5 µM
TGI (HCC-2998 colon): > 100 µM
TGI (MCF7 breast): > 100 µM
TGI (MDA-MB-231 breast): > 100 µM
TGI (MOLT-4 leukemia): > 100 µM
TGI (NCI-H460 lung): 37.6 µM
TGI (OVCAR-5 ovarian): > 100 µM
TGI (SF-295 CNS): > 100 µM
TGI (SNB-75 CNS): > 90.7 µM
TGI (SW-620 colon): > 100 µM
TGI (T-47D breast): > 100 µM
TGI (UACC-257 melanoma): > 100 µM

Cc1ccc(/C(O)=C/C(=O)C(=O)/C=C(\O)c2ccc(C)cc2C)c(C)c1
TGI (A498 renal): 4.7 µM
TGI (BT-549 breast): 3.23 µM
TGI (HCC-2998 colon): 4.09 µM
TGI (MCF7 breast): 4.33 µM
TGI (MDA-MB-231 breast): 4.83 µM
TGI (MOLT-4 leukemia): 4.67 µM
TGI (NCI-H460 lung): 3.47 µM
TGI (OVCAR-5 ovarian): 3.88 µM
TGI (SF-295 CNS): 3.38 µM
TGI (SNB-75 CNS): 4.19 µM
TGI (SW-620 colon): 6.88 µM
TGI (T-47D breast): 4.46 µM
TGI (UACC-257 melanoma): 3.21 µM

O=C(NCCCCCCNCc1cccc2ccccc12)Nc1cccc2ccccc12
TGI (A498 renal): > 100 µM
TGI (BT-549 breast): > 100 µM
TGI (HCC-2998 colon): > 100 µM
TGI (MCF7 breast): > 100 µM
TGI (MDA-MB-231 breast): > 100 µM
TGI (MOLT-4 leukemia): > 100 µM
TGI (NCI-H460 lung): > 100 µM
TGI (OVCAR-5 ovarian): > 100 µM
TGI (SF-295 CNS): > 100 µM
TGI (SNB-75 CNS): > 100 µM
TGI (SW-620 colon): > 100 µM
TGI (T-47D breast): > 100 µM
TGI (UACC-257 melanoma): > 100 µM

CN(O)C(=O)c1cccc(Cl)c1
TGI (A498 renal): > 100 µM
TGI (BT-549 breast): > 100 µM
TGI (HCC-2998 colon): > 100 µM
TGI (MCF7 breast): > 100 µM
TGI (MDA-MB-231 breast): > 100 µM
TGI (MOLT-4 leukemia): > 100 µM
TGI (NCI-H460 lung): > 100 µM
TGI (OVCAR-5 ovarian): > 100 µM
TGI (SF-295 CNS): > 100 µM
TGI (SNB-75 CNS): > 100 µM
TGI (SW-620 colon): > 100 µM
TGI (T-47D breast): > 100 µM
TGI (UACC-257 melanoma): > 100 µM

CNC(=O)Oc1ccc(-c2cn3cc(OC(=O)NC)ccc3n2)cc1
TGI (A498 renal): > 100 µM
TGI (BT-549 breast): > 100 µM
TGI (HCC-2998 colon): > 100 µM
TGI (MCF7 breast): > 100 µM
TGI (MDA-MB-231 breast): > 100 µM
TGI (MOLT-4 leukemia): > 100 µM
TGI (NCI-H460 lung): > 100 µM
TGI (OVCAR-5 ovarian): > 100 µM
TGI (SF-295 CNS): > 100 µM
TGI (SNB-75 CNS): > 100 µM
TGI (SW-620 colon): > 100 µM
TGI (T-47D breast): > 100 µM
TGI (UACC-257 melanoma): > 100 µM

O=c1c2ncn(COCCCl)c2n(-c2ccccc2)c(=S)n1-c1ccccc1
TGI (A498 renal): > 100 µM
TGI (BT-549 breast): > 100 µM
TGI (HCC-2998 colon): > 100 µM
TGI (MCF7 breast): > 100 µM
TGI (MDA-MB-231 breast): > 100 µM
TGI (MOLT-4 leukemia): > 100 µM
TGI (NCI-H460 lung): > 100 µM
TGI (OVCAR-5 ovarian): > 100 µM
TGI (SF-295 CNS): > 100 µM
TGI (SNB-75 CNS): > 100 µM
TGI (SW-620 colon): > 100 µM
TGI (T-47D breast): > 100 µM
TGI (UACC-257 melanoma): > 100 µM

CCC1(C(=O)OC(C)(C)C)OC12C(C)CCCC2C (stereo unspecified)
TGI (A498 renal): > 100 µM
TGI (BT-549 breast): > 100 µM
TGI (HCC-2998 colon): 45.1 µM
TGI (MCF7 breast): 51.4 µM
TGI (MDA-MB-231 breast): > 100 µM
TGI (MOLT-4 leukemia): 41.2 µM
TGI (NCI-H460 lung): > 100 µM
TGI (OVCAR-5 ovarian): > 100 µM
TGI (SF-295 CNS): > 100 µM
TGI (SNB-75 CNS): 97.7 µM
TGI (SW-620 colon): > 100 µM
TGI (T-47D breast): > 100 µM
TGI (UACC-257 melanoma): > 100 µM

O=C1CCCCC(=O)OC2(CCCCC2=O)CC1 (stereo unspecified)
TGI (A498 renal): > 100 µM
TGI (BT-549 breast): > 100 µM
TGI (HCC-2998 colon): > 100 µM
TGI (MCF7 breast): > 100 µM
TGI (MDA-MB-231 breast): > 100 µM
TGI (MOLT-4 leukemia): > 100 µM
TGI (NCI-H460 lung): > 100 µM
TGI (OVCAR-5 ovarian): > 100 µM
TGI (SF-295 CNS): > 100 µM
TGI (SNB-75 CNS): > 100 µM
TGI (SW-620 colon): > 100 µM
TGI (T-47D breast): > 100 µM
TGI (UACC-257 melanoma): > 100 µM
